Experimental data: ChEMBL document CHEMBL1151158, “New nitrogenous Germacranes from a Thai marine sponge, Axinyssa n. sp” (2004)
Activity calls are given as the source filed them. The rule behind the calls is not given here.

Key:
Assay type in all cases: functional
[1] = test system: Candida albicans; assay: Antimicrobial activity against Candida albicans ATCC 10231 at 500 ug/disk after 24 hrs by agar disk diffusion method
[2] = test system: Staphylococcus aureus; assay: Antimicrobial activity against Staphylococcus aureus ATCC 25923 at 500 ug/disk after 24 hrs by agar disk diffusion method
[3] = test system: Bacillus subtilis; assay: Antimicrobial activity against Bacillus subtilis ATCC 6633 at 500 ug/disk after 24 hrs by agar disk diffusion method

## C/C1=C/C[C@H](C(C)(C)NC(=O)NC(C)(C)[C@H]2C/C=C(/C)CC/C=C(/C)CC2)CC/C(C)=C\CC1
[1]
  Activity: inactive
[2]
  Activity: inactive
[3]
  Activity: inactive

## C/C1=C/C[C@H](C(C)(C)N)CC/C(C)=C\CC1
[1]; ATCC 10231, 24 h, read-out: IZ
  zone of inhibition at 500 µg/disc: 27 mm
[2]; ATCC 25923, 24 h, read-out: IZ
  zone of inhibition at 500 µg/disc: 23 mm
[3]; ATCC 6633, 24 h, read-out: IZ
  zone of inhibition at 500 µg/disc: 22 mm
